Source: patent US20070238762A1, “Use of Antagonists of Hepatic Sympathetic Nerve Activity” (DiaMedica Inc., priority 2003, published 2007)

Experiments:
Sprague Dawley rats [1] = assay: Rapid insulin sensitivity test (RIST) following 24 hour fast; format: in vivo, rat; settings: male rats fasted 24 hours; constant i.v. infusion of phentolamine; FIG. 3
Description: HISS-dependent and HISS-independent insulin action can be most readily quantitated using the rapid insulin sensitivity test (RIST) which is a transient euglycemic clamp in response to a bolus administration of insulin. […] The RIST method uses variable glucose infusion rates to maintain the blood glucose level constant. The amount of glucose required to be administered in order to maintain the glycemic baseline is the index of insulin sensitivity and is referred to as the RIST index. The RIST index produced by this procedure consists of a HISS-dependent component and a HISS-independent component that can be readily differentiated by testing in the control fed state and then repeating the test after blockade of HISS release by any of a number of means including surgical denervation of the liver, blockade of hepatic muscarinic receptors, blockade of hepatic nitric oxide production, or blockade of hepatic cyclooxygenase. […] Blockade of HISS release results in HDIR. […] In order to determine whether HISS played a role in controlling glycogenolysis in response to acute trauma, fully anesthetized, fed, male, Sprague Dawley rats were prepared surgically according to the standard animal preparation used to conduct a rapid insulin sensitivity test (RIST) (Lautt et al., 1998). […] Blood was then withdrawn at a rate of 0.5 ml/min to decrease arterial pressure to 50 mm Hg. […]

Sprague Dawley rats [2] = assay: Rapid insulin sensitivity test (RIST) following 18 hour fast; format: in vivo, rat; settings: male rats fasted 18 hours; bolus 600 μg/kg ipv phentolamine; FIG. 4
Protocol: Blockade of HISS release results in HDIR.
Male, Sprague Dawley rats were fed normal rat pellets and then fasted for a 18-hour period (with free access to water) prior to administration of pentobarbital sodium anesthesia and standard RIST methodology surgical preparation as described in Example One.
Following fasting, the animals were administered a bolus dose of 600 μg/kg ipv of phentolamine or a bolus dose of 600 μg/kg ipv of phentolamine and 5 μg/kg ipv of arecoline.

**Q.** How did the “insulin action (RIST)” value (Sprague Dawley rats [1]) turn out when `Cc1ccc(N(CC2=NCCN2)c2cccc(O)c2)cc1` [phentolamine] was run?
**A.** Its value is “significantly restored toward normal levels”.

**Q.** And the “insulin action (RIST)” value (Sprague Dawley rats [2])?
**A.** The value was “restoration of insulin action”.
